This note sets out measurements from patent publication US10071979B2, “Process of producing cycloalkylcarboxamido-indole compounds” (Vertex Pharmaceuticals Incorporated, priority 2010, dated 2018).

For this assay, the target named is T1, ΔF508-CFTR (Homo sapiens, UniProt P13569, DEL508-508).
T1 construct: expressed in transfected cells
Briefly: Assays for detecting and measuring ΔF508-CFTR correction properties (membrane potential optical assay, FRET voltage-sensor dyes). It counts as cell-based. To be noted: NIH3T3 mouse fibroblasts stably expressing ΔF508-CFTR; percent activity bins. The source says: Assays for Detecting and Measuring ΔF508-CFTR Correction Properties of Compounds
Membrane Potential Optical Methods for Assaying ΔF508-CFTR Modulation Properties of Compounds
The optical membrane potential assay utilized voltage-sensitive FRET sensors described by Gonzalez and Tsien (See, Gonzalez, J. E. and R. Y. Tsien (1995) “Voltage sensing by fluorescence resonance energy transfer in single cells” Biophys J 69(4): 1272-80, and Gonzalez, J. E. and R. Y. Tsien (1997) “Improved indicators of cell membrane potential that use fluorescence resonance energy transfer” Chem Biol 4(4): 269-77) in combination with instrumentation for measuring fluorescence changes such as the Voltage/Ion Probe Reader (VIPR) (See, Gonzalez, J. E., K. Oades, et al. (1999) “Cell-based assays and instrumentation for screening ion-channel targets” Drug Discov Today 4(9): 431-439).
These voltage sensitive assays are based on the change in fluorescence resonant energy transfer (FRET) between the membrane-soluble, voltage-sensitive dye, DiSBAC2(3), and a fluorescent phospholipid, CC2-DMPE, which is attached to the outer leaflet of the plasma membrane and acts as a FRET donor. […] The changes in fluorescence emission were monitored using VIPR™ II, which is an integrated liquid handler and fluorescent detector designed to conduct cell-based screens in 96- or 384-well microtiter plates. […]

T1 sequence (P13569 with tags, fused parts or gaps DEL508-508): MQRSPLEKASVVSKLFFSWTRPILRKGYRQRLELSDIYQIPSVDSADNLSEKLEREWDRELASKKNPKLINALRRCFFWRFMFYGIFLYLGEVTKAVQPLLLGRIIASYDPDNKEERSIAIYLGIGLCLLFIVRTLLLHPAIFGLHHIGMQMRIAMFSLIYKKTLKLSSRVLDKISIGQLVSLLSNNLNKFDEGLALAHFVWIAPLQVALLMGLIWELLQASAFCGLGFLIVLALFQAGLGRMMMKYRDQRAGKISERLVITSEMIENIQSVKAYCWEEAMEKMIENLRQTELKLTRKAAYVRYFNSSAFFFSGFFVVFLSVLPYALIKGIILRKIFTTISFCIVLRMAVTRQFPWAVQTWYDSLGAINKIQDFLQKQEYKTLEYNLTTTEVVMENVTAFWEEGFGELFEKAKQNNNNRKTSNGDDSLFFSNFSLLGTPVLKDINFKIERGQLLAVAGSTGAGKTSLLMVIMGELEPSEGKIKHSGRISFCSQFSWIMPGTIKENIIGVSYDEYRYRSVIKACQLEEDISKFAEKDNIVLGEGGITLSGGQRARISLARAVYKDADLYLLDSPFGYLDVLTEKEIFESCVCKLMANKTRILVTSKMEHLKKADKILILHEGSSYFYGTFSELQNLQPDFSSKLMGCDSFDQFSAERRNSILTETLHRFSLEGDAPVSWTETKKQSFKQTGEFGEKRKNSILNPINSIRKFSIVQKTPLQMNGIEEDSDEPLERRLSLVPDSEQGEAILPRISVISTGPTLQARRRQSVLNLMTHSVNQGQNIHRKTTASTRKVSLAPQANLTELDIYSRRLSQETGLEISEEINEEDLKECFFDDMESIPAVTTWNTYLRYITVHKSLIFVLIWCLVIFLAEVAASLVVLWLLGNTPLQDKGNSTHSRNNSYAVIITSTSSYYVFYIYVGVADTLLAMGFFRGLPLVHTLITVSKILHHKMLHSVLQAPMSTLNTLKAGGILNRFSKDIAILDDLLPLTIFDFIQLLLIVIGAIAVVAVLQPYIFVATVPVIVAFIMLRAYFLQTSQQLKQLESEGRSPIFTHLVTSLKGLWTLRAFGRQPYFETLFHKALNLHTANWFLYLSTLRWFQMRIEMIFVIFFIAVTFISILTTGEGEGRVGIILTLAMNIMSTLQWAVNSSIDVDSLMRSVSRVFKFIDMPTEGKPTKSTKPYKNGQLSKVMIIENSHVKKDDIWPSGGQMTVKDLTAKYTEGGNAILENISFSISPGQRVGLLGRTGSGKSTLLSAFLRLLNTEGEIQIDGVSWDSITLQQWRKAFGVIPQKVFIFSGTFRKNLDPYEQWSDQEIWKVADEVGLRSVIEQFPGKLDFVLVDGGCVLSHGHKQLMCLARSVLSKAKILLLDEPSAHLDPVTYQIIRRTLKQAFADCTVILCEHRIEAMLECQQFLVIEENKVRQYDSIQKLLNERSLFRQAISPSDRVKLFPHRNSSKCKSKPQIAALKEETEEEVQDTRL

Regarding `CC(C)(CO)c1cc2cc(NC(=O)C3(c4ccc5c(c4)OC(F)(F)O5)CC3)c(F)cc2n1C[C@@H](O)CO` [Compound 1, (R)-1-(2,2-difluorobenzo[d][1,3]dioxol-5-yl)-N-(1-(2,3-dihydroxypropyl)-6-fluoro-2-(1-hydroxy-2-methylpropan-2-yl)-1H-indol-5-yl)cyclopropanecarboxamide], the “Binned MaxEfficacy (PercentActivity)” value is listed as “+++ (100.0 < +++)”.
